14 compounds from patent publication US20250339569A1, “CARBONIC ANHYDRASE IX LIGANDS” (priority 2021, published 2025) can be followed below.

Starred links: 1 amine or outer side, 2 acyl side, 3 side chain; linkers in the order of their positions; H or OH if unused. Positions of bridges follow the written chain, without caps; N, C: chain ends. Non-standard residues stand in square brackets, D forms with d. Residues, ends and D or L forms follow the SMILES beside them. Groups on a side chain read outwards from the residue. *: point of attachment. X63 = O=C1CC[C@@H](C(=O)Nc2cccc(C[C@H](N[*:1])C(=O)[*:2])c2)N1; X62 = O=C(Nc1cccc(C[C@H](N[*:1])C(=O)[*:2])c1)c1c[nH]cn1; DOTA = O=C(O)CN1CCN(CC(=O)O)CCN(CC(=O)*)CCN(CC(=O)O)CC1; X54 = O=C(Nc1cccc(C[C@H](N[*:1])C(=O)[*:2])c1)c1cnco1; Cyclopropanecarbonyl(1-CN) = N#CC1(C(=O)*)CC1; Phe(4-NH2) = Nc1ccc(C[C@H](N)C(=O)O)cc1; mXylylene = c1cc(C[*:1])cc(C[*:2])c1; X2 = O=C(CN1CCC(N[*:1])CC1)[*:2]; X58 = CS(=O)(=O)c1ccc(CN*)cc1; 4Amb = NCc1ccc(C(=O)O)cc1; Isovaleryl = CC(C)CC(=O)*; X64 = c1cc2cc(CN*)ccc2cn1; Fluoroacetyl = O=C(CF)*; X67 = CS(=O)(=O)CC(=O)*; Dap = NC[C@H](N)C(=O)O; X70 = N#Cc1ccc(CN*)cc1; AEEA = NCCOCCOCC(=O)O; X45 = COCc1cc(CN*)on1; Propionyl = CCC(=O)*

One assay addresses T1, CAIX-expressing human HT-29 colorectal cancer cells (Homo sapiens, UniProt Q16790).
T1 construct: CAIX-expressing human HT-29 colorectal cancer cells; host or cells: HT-29 human colorectal cancer cells
The assay is described as follows: FACS binding assay (IC50 determination, competition with tracer 3BP-2776 or 3BP-4149).
Details: not given
The method, boiled down: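 HT-29 cells in FACS buffer (PBS, 1% FCS) at 500.000 cells/ml were exposed to compounds competing with a labelled tracer, with biotinylated compounds detected by 1 μg/mL APC-streptavidin for 30 min on ice. APC/Cy5 median fluorescence was read by flow cytometry and IC50 derived by 4PL fit.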
In the case of `CC(C)C[C@@H]1NC(=O)[C@H](Cc2ccc(NC(=O)CF)cc2)NC(=O)[C@H](CC(=O)O)NC(=O)[C@H]2CCCN2C(=O)[C@H](CCC(=O)O)NC(=O)[C@@H](NC(=O)[C@H](Cc2ccc(O)cc2)NC(=O)[C@@H](NC(=O)CN2CCC(NC(=O)CN3CCN(CC(=O)O)CCN(CC(=O)O)CCN(CC(=O)O)CC3)CC2)C(C)C)CSCc2cccc(c2)CSC[C@@H](C(N)=O)NC(=O)[C@H](CO)NC(=O)[C@H](Cc2c[nH]c3ccccc23)NC(=O)[C@H]([C@@H](C)O)NC1=O` [3BP-4358] ({DOTA}-[X2]VYCE[dP]D[Phe(4-NH2)](Fluoroacetyl)LTWSC-NH2; linker 4-13 via mXylylene), the IC50 lay within 100 to 794 nM.

The same assay, now with this note: FACS binding assay, HT-29 cells, competition with tracer 3BP-2776 (10 nM, biotin-labeled), 4° C., 1 hour; read-out: pIC50 category (activity) (converted).
For the compound `CC(C)C[C@@H]1NC(=O)[C@H](Cc2cccc(NC(=O)c3cnco3)c2)NC(=O)[C@H](CC(=O)O)NC(=O)[C@H]2CCCN2C(=O)[C@H](CCC(=O)O)NC(=O)[C@@H](NC(=O)[C@H](Cc2ccc(O)cc2)NC(=O)[C@@H](NC(=O)CN2CCC(NC(=O)CN3CCN(CC(=O)O)CCN(CC(=O)O)CCN(CC(=O)O)CC3)CC2)C(C)C)CSCc2cccc(c2)CSC[C@@H](C(N)=O)NC(=O)[C@H](CO)NC(=O)[C@H](Cc2c[nH]c3ccccc23)NC(=O)[C@H]([C@@H](C)O)NC1=O` [3BP-4239] ({DOTA}-[X2]VYCE[dP]D[X54]LTWSC-NH2; linker 4-13 via mXylylene), the IC50 is 10 to 79.4 nM.
Consider `CC(C)C[C@@H]1NC(=O)[C@H](Cc2cccc(NC(=O)c3c[nH]cn3)c2)NC(=O)[C@H](CC(=O)O)NC(=O)[C@H]2CCCN2C(=O)[C@H](CCC(=O)O)NC(=O)[C@@H](NC(=O)[C@H](Cc2ccc(O)cc2)NC(=O)[C@@H](NC(=O)CN2CCC(NC(=O)CN3CCN(CC(=O)O)CCN(CC(=O)O)CCN(CC(=O)O)CC3)CC2)C(C)C)CSCc2cccc(c2)CSC[C@@H](C(N)=O)NC(=O)[C@H](CO)NC(=O)[C@H](Cc2c[nH]c3ccccc23)NC(=O)[C@H]([C@@H](C)O)NC1=O` [3BP-4240] ({DOTA}-[X2]VYCE[dP]D[X62]LTWSC-NH2; linker 4-13 via mXylylene), for which the IC50 was 10 to 79.4 nM.
The same measure, in the same setting: the same measure for `CC(C)C[C@@H]1NC(=O)[C@H](Cc2cccc(NC(=O)[C@@H]3CCC(=O)N3)c2)NC(=O)[C@H](CC(=O)O)NC(=O)[C@H]2CCCN2C(=O)[C@H](CCC(=O)O)NC(=O)[C@@H](NC(=O)[C@H](Cc2ccc(O)cc2)NC(=O)[C@@H](NC(=O)CN2CCC(NC(=O)CN3CCN(CC(=O)O)CCN(CC(=O)O)CCN(CC(=O)O)CC3)CC2)C(C)C)CSCc2cccc(c2)CSC[C@@H](C(N)=O)NC(=O)[C@H](CO)NC(=O)[C@H](Cc2c[nH]c3ccccc23)NC(=O)[C@H]([C@@H](C)O)NC1=O` [3BP-4241] ({DOTA}-[X2]VYCE[dP]D[X63]LTWSC-NH2; linker 4-13 via mXylylene): 10 to 79.4 nM.

The assay is the same for the next values; noted with them: FACS binding assay, HT-29 cells, competition with tracer 3BP-4149 (3 nM, Cy5-labeled), 4° C., 1 hour; read-out: pIC50 category (activity) (converted).
In the case of `CC(C)C[C@@H]1NC(=O)[C@H](Cc2c[nH]c3ccccc23)NC(=O)[C@H](CC(=O)O)NC(=O)[C@H]2CCCN2C(=O)[C@H](CCC(=O)O)NC(=O)[C@@H]2CSCc3cccc(c3)CSC[C@@H](C(N)=O)NC(=O)[C@H](CNC(=O)C[C@H](NC(=O)COCCOCCNC(=O)CN3CCN(CC(=O)O)CCN(CC(=O)O)CCN(CC(=O)O)CC3)C(=O)N2)NC(=O)[C@H](Cc2c[nH]c3ccccc23)NC(=O)[C@H]([C@@H](C)O)NC1=O` [3BP-4262] ({DOTA-AEEA}-DCE[dP]DWLTW[Dap]C-NH2; lactam 1-10; linker 2-11 via mXylylene), the IC50 is 10 to 79.4 nM.
Still for that read-out and setting: the same measure for `CC(C)C[C@@H]1NC(=O)[C@H](Cc2c[nH]c3ccccc23)NC(=O)[C@H](CCC(=O)NCc2ccc3cnccc3c2)NC(=O)[C@H]2CCCN2C(=O)[C@H](CCC(=O)O)NC(=O)[C@@H](NC(=O)[C@H](Cc2ccc(O)cc2)NC(=O)[C@@H](NC(=O)CN2CCC(NC(=O)CN3CCN(CC(=O)O)CCN(CC(=O)O)CCN(CC(=O)O)CC3)CC2)C(C)C)CSCc2cccc(c2)CSC[C@@H](C(N)=O)NC(=O)[C@H](CO)NC(=O)[C@H](Cc2c[nH]c3ccccc23)NC(=O)[C@H]([C@@H](C)O)NC1=O` [3BP-4328] ({DOTA}-[X2]VYCE[dP]E(X64)WLTWSC-NH2; linker 4-13 via mXylylene): 100 to 794 nM; for `CC(C)C[C@@H]1NC(=O)[C@H](Cc2c[nH]c3ccccc23)NC(=O)[C@H](CCC(=O)NCc2ccc(S(C)(=O)=O)cc2)NC(=O)[C@H]2CCCN2C(=O)[C@H](CCC(=O)O)NC(=O)[C@@H](NC(=O)[C@H](Cc2ccc(O)cc2)NC(=O)[C@@H](NC(=O)CN2CCC(NC(=O)CN3CCN(CC(=O)O)CCN(CC(=O)O)CCN(CC(=O)O)CC3)CC2)C(C)C)CSCc2cccc(c2)CSC[C@@H](C(N)=O)NC(=O)[C@H](CO)NC(=O)[C@H](Cc2c[nH]c3ccccc23)NC(=O)[C@H]([C@@H](C)O)NC1=O` [3BP-4333] ({DOTA}-[X2]VYCE[dP]E(X58)WLTWSC-NH2; linker 4-13 via mXylylene): 10 to 79.4 nM; for `COCc1cc(CNC(=O)CC[C@@H]2NC(=O)[C@H]3CCCN3C(=O)[C@H](CCC(=O)O)NC(=O)[C@@H](NC(=O)[C@H](Cc3ccc(O)cc3)NC(=O)[C@@H](NC(=O)CN3CCC(NC(=O)CN4CCN(CC(=O)O)CCN(CC(=O)O)CCN(CC(=O)O)CC4)CC3)C(C)C)CSCc3cccc(c3)CSC[C@@H](C(N)=O)NC(=O)[C@H](CO)NC(=O)[C@H](Cc3c[nH]c4ccccc34)NC(=O)[C@H]([C@@H](C)O)NC(=O)[C@H](CC(C)C)NC(=O)[C@H](Cc3c[nH]c4ccccc34)NC2=O)on1` [3BP-4339] ({DOTA}-[X2]VYCE[dP]E(X45)WLTWSC-NH2; linker 4-13 via mXylylene): 10 to 79.4 nM.
Turning to `CC(C)C[C@@H]1NC(=O)[C@H](Cc2c[nH]c3ccccc23)NC(=O)[C@H](CCC(=O)NCc2ccc(C#N)cc2)NC(=O)[C@H]2CCCN2C(=O)[C@H](CCC(=O)O)NC(=O)[C@@H](NC(=O)[C@H](Cc2ccc(O)cc2)NC(=O)[C@@H](NC(=O)CN2CCC(NC(=O)CN3CCN(CC(=O)O)CCN(CC(=O)O)CCN(CC(=O)O)CC3)CC2)C(C)C)CSCc2cccc(c2)CSC[C@@H](C(N)=O)NC(=O)[C@H](CO)NC(=O)[C@H](Cc2c[nH]c3ccccc23)NC(=O)[C@H]([C@@H](C)O)NC1=O` [3BP-4340] ({DOTA}-[X2]VYCE[dP]E(X70)WLTWSC-NH2; linker 4-13 via mXylylene), the IC50 was 10 to 79.4 nM.
As to `CC(C)C[C@@H]1NC(=O)[C@H](Cc2c[nH]c3ccccc23)NC(=O)[C@H](CCC(=O)NCc2ccc(C(N)=O)cc2)NC(=O)[C@H]2CCCN2C(=O)[C@H](CCC(=O)O)NC(=O)[C@@H](NC(=O)[C@H](Cc2ccc(O)cc2)NC(=O)[C@@H](NC(=O)CN2CCC(NC(=O)CN3CCN(CC(=O)O)CCN(CC(=O)O)CCN(CC(=O)O)CC3)CC2)C(C)C)CSCc2cccc(c2)CSC[C@@H](C(N)=O)NC(=O)[C@H](CO)NC(=O)[C@H](Cc2c[nH]c3ccccc23)NC(=O)[C@H]([C@@H](C)O)NC1=O` [3BP-4345] ({DOTA}-[X2]VYCE[dP]E([4Amb-NH2])WLTWSC-NH2; linker 4-13 via mXylylene), the IC50 is 10 to 79.4 nM.
Still for that read-out and setting: to `CCC(=O)Nc1ccc(C[C@@H]2NC(=O)[C@H](CC(=O)O)NC(=O)[C@H]3CCCN3C(=O)[C@H](CCC(=O)O)NC(=O)[C@@H](NC(=O)[C@H](Cc3ccc(O)cc3)NC(=O)[C@@H](NC(=O)CN3CCC(NC(=O)CN4CCN(CC(=O)O)CCN(CC(=O)O)CCN(CC(=O)O)CC4)CC3)C(C)C)CSCc3cccc(c3)CSC[C@@H](C(N)=O)NC(=O)[C@H](CO)NC(=O)[C@H](Cc3c[nH]c4ccccc34)NC(=O)[C@H]([C@@H](C)O)NC(=O)[C@H](CC(C)C)NC2=O)cc1` [3BP-4347] ({DOTA}-[X2]VYCE[dP]D[Phe(4-NH2)](Propionyl)LTWSC-NH2; linker 4-13 via mXylylene) belongs 100 to 794 nM; to `CC(C)CC(=O)Nc1ccc(C[C@@H]2NC(=O)[C@H](CC(=O)O)NC(=O)[C@H]3CCCN3C(=O)[C@H](CCC(=O)O)NC(=O)[C@@H](NC(=O)[C@H](Cc3ccc(O)cc3)NC(=O)[C@@H](NC(=O)CN3CCC(NC(=O)CN4CCN(CC(=O)O)CCN(CC(=O)O)CCN(CC(=O)O)CC4)CC3)C(C)C)CSCc3cccc(c3)CSC[C@@H](C(N)=O)NC(=O)[C@H](CO)NC(=O)[C@H](Cc3c[nH]c4ccccc34)NC(=O)[C@H]([C@@H](C)O)NC(=O)[C@H](CC(C)C)NC2=O)cc1` [3BP-4348] ({DOTA}-[X2]VYCE[dP]D[Phe(4-NH2)](Isovaleryl)LTWSC-NH2; linker 4-13 via mXylylene), 100 to 794 nM.
With `CC(C)C[C@@H]1NC(=O)[C@H](Cc2ccc(NC(=O)C3(C#N)CC3)cc2)NC(=O)[C@H](CC(=O)O)NC(=O)[C@H]2CCCN2C(=O)[C@H](CCC(=O)O)NC(=O)[C@@H](NC(=O)[C@H](Cc2ccc(O)cc2)NC(=O)[C@@H](NC(=O)CN2CCC(NC(=O)CN3CCN(CC(=O)O)CCN(CC(=O)O)CCN(CC(=O)O)CC3)CC2)C(C)C)CSCc2cccc(c2)CSC[C@@H](C(N)=O)NC(=O)[C@H](CO)NC(=O)[C@H](Cc2c[nH]c3ccccc23)NC(=O)[C@H]([C@@H](C)O)NC1=O` [3BP-4357] ({DOTA}-[X2]VYCE[dP]D[Phe(4-NH2)](Cyclopropanecarbonyl(1-CN))LTWSC-NH2; linker 4-13 via mXylylene), the IC50 is 100 to 794 nM.
Consider `CC(C)C[C@@H]1NC(=O)[C@H](Cc2ccc(NC(=O)CS(C)(=O)=O)cc2)NC(=O)[C@H](CC(=O)O)NC(=O)[C@H]2CCCN2C(=O)[C@H](CCC(=O)O)NC(=O)[C@@H](NC(=O)[C@H](Cc2ccc(O)cc2)NC(=O)[C@@H](NC(=O)CN2CCC(NC(=O)CN3CCN(CC(=O)O)CCN(CC(=O)O)CCN(CC(=O)O)CC3)CC2)C(C)C)CSCc2cccc(c2)CSC[C@@H](C(N)=O)NC(=O)[C@H](CO)NC(=O)[C@H](Cc2c[nH]c3ccccc23)NC(=O)[C@H]([C@@H](C)O)NC1=O` [3BP-4360] ({DOTA}-[X2]VYCE[dP]D[Phe(4-NH2)](X67)LTWSC-NH2; linker 4-13 via mXylylene), for which the IC50 was 100 to 794 nM.
